# Reference: patent US12517131B2, “Methods for labeling eukaryotic cells from a multicellular organism as well as for treating and/or diagnosing a cancer using modified monosaccharide compounds” (DIAMIDEX, priority 2019, dated 2026)
# Key:
# Format in all cases: cell-based, human
# [1] = test system: HACAT (immortalized cell lines); test: In vitro cytotoxicity of Ara-N3 probe (Annexin V/IP, MTS); conditions: tested 1, 10, 50 and 100 mM, 24 h and 48 h
# Protocol: (§1) The cell lines (as detailed below in the table) were provided by Inserm/Aquiderm transfer cell. Cell culture of cell lines and cell cytoxicity tests were also carried out by Aquiderm transfer cell, in the laboratory of INSERM U1035.
# (§2) The cells were cultivated in an oven at 37° C., 5% CO2 and 95% humidity, in different culture media: • either in RPMI 1640 medium supplemented with 10% of decomplemented FCS (Fetal calf serum) and antibiotics penicillin (100 IU/ml) and […] (100 μg/ml), for the pair Monocytes/THP1. • either in DMEM medium supplemented with 10% of decomplemented FCS and antibiotics penicillin (100 IU/ml) and […] (100 μg/ml) for the Hacat/A431 couple.
# (§3) All the cells were seeded in culture plates, either in 96 wells at the density of 1*10^4 cells/well for the MTS proliferation test, either in 24 wells at the density of 5*10^4 cells/well for the Annexin V test/IP test. Then the cells were incubated at 37° C. and 5% CO2 for 24 hours. After 24 hours, the culture medium was changed in all the wells and the cells adhered to the bottom of the wells were rinsed twice in PBS (Eurobio) or centrifuged and washed twice in PBS for the cells in suspension, before being exposed to the Ara-N3 probe at different concentrations: 1, 10, 50 and 100 mM. The cells were incubated at 37° C. and 5% CO2 for 48 hours.
# (§4) This test requires the use of an Annexin V-APC kit (Biolegend) for the detection of apoptosis/necrosis. This test uses the ability of Annexin V to bind to membrane phosphatidylserines (PS) and the intercalating properties of propidium iodide (PI) on DNA.
# (§5) Briefly, after incubation of the cells with the Ara-N3 probe at different concentrations and at different times (24 h and 48 h), the cells were recovered, trypsinized (for adherent cells) and washed in PBS. After counting in trypan blue on the Malassez cell, the cells were incubated in a labeling buffer (100 μL) in the presence of Annexin V-APC (5 μL) and of IP (10 μL) for 15 minutes at room temperature and in the dark. They were then directly analyzed by cytometry after adding 100 μL of labeling buffer. […]
# [2] = test system: A431 (tumoral cell lines); test: as above; conditions: tested 1, 10, 50 and 100 mM, 24 h and 48 h
# Protocol: as §1, §2, §3, §4, §5
# [3] = test system: THP1 (tumoral cell lines); test: as above; conditions: tested 1, 10, 50 and 100 mM, 24 h and 48 h
# Protocol: as §1, §2, §3, §4, §5
# [4] = test system: NAMALWA (vs B12-F8); test: Labeling of cancer and non-cancer cells, fluorescence signal ratio; conditions: NAMALWA (20 h) vs B12-F8 (24 h); Ara-N3 10 mM; FBS 10%; one doubling time
# Protocol: (§6) The fluorescence Assimilation of Ara-N3 probes was visualized by copper-free click chemistry using sulfo-DBCO-biotin (1 mM), followed by labeling with a mouse anti-biotin Alexa Fluor 488 antibody conjugate (0.62 mg/ml stock, Jackson ImmunoResearch, dilution 1/10). The click reaction was carry-out as following: At 24 h incubation times, the culture mediums were removed, and attached cells were washed twice with PBS. Cells were detached with Tryp-LE, washed twice with PBS, and centrifuged at 13000 g for 2 min. The cellular pellets were resuspended with 10 μL of sulfo-DBCO-biotin and incubated 30 min in the dark, and at 37 C°. Then, cells were washed twice with PBS, centrifuged, and cellular pellets were resuspended with 10 μL of a mouse anti-biotin antibody solution, before to be incubated at room temperature in dark. Thereafter, cells were washed twice with PBS and small cellular suspension spots (5 μL) were put in Polysine® adhesion slides (VWR international S.A.S), in the dark room, until dry (20 min). The spots were fixed with 4% paraformaldehyde during 20 min, in dark and room temperature. Slides were then washed twice with PBS, before recovering with square cover glasses (VWR international S.A.S) using glycerol Mounting Medium (Dako) and stored at 4° C. in dark room.
# (§7) The fluorescence acquisition was recorded using Olympus Microscopy IX83 (Olympus Life Science) equipped with a 60×/1.3 […]/1.4 SRI (silicone refractive index) objective, and Hamamatsu oreca flash 4 LT camera with 109 nm/pixel calibrated pixel size. The excitation light was emitted by X-CITE 120LED using the AT180/30X excited filter and signal was monitored using AT535/40m emission filter. Green light exposition time was 600 ms and white light exposition time was determined by DIC methods at […]. The acquisition area size analyzed by the Celisens dimension V1.16 software was different depending on the cell number containing in the spot.
# (§8) The images were processed using count and measure unit of the Cellsens dimension V1.16 software. The background noise was deleted as follows: ROI were first defined on the background of the image and the average pixel intensity was calculated. The value thus obtained was subtracted from all pixels of the image. The fluorescence intensity of each cell was determined from a threshold set at a value of 3030. All pixels that have intensity below 3030 were not counted.
# (§9) The same experiments as in example 2 with other cancer and corresponding non cancer cells were performed. The culture media were adapted to the tested cells and supplemented by 10% fetal bovine serum (FBS). Ara-N3 probe (10 mM) was added to culture media with FBS concentration (10%). The incubation times corresponded to one doubling time or twice doubling time of the tested cells (see table below).
# (§10) The fluorescence signal cancer/non cancer ratios were calculated based on fluorescence intensities obtained with Ara-N3 tested on cancer and corresponding non cancer cells.
# [5] = test system: A549 (vs Bronchial epithelial cell); test: as above; conditions: A549 (doubling time 40 h) vs Bronchial epithelial cell (40 h); Ara-N3 10 mM; FBS 10%; test at 2 doubling time
# Protocol: as §6, §7, §8, §9, §10
# [6] = test system: Kasumi-1 (vs B12-F8); test: as above; conditions: Kasumi-1 (48 h) vs B12-F8 (24 h); Ara-N3 10 mM; FBS 10%; one doubling time
# Protocol: as §6, §7, §8, §9, §10
# [7] = test system: RS4 (vs Lymphocytes T); test: as above; conditions: RS4 (35 h) vs Lymphocytes T (24 h); Ara-N3 10 mM; FBS 10%; one doubling time
# Protocol: as §6, §7, §8, §9, §10
# [8] = test system: A375 (vs PIG); test: as above; conditions: A375 (26 h) vs PIG (26 h); Ara-N3 10 mM; FBS 10%; one doubling time
# Protocol: as §6, §7, §8, §9, §10
# [9] = test system: SU-DHL-4 (vs Isolated primary B cells); test: as above; conditions: SU-DHL-4 (40 h) vs Isolated primary B cells; Ara-N3 10 mM; FBS 10%
# Protocol: as §6, §7, §8, §9, §10
# [10] = test system: DOHH-2 (vs Isolated primary B cells); test: as above; conditions: DOHH-2 (40-48 h) vs Isolated primary B cells; Ara-N3 10 mM; FBS 10%
# Protocol: as §6, §7, §8, §9, §10
smiles,measurement,setting,value
"[N-]=[N+]=NC[C@H]1OC(O)[C@@H](O)[C@@H]1O (stereo partly drawn) [Ara-N3, 5-azido-5-deoxy-D-arabinofuranose]",Non-toxic concentration of Ara-N3,[1],>10 mM
same,Non-toxic concentration of Ara-N3,[2],>10 mM
same,Non-toxic concentration of Ara-N3,[3],>10 mM
same,Cancer/Non Cancer Ratio (fluorescence signal),[4],2.3
same,Cancer/Non Cancer Ratio (fluorescence signal),[5],7.7
same,Cancer/Non Cancer Ratio (fluorescence signal),[6],1.5
same,Cancer/Non Cancer Ratio (fluorescence signal),[7],1.6
same,Cancer/Non Cancer Ratio (fluorescence signal),[8],3.5
same,Cancer/Non Cancer Ratio (fluorescence signal),[9],2.5
same,Cancer/Non Cancer Ratio (fluorescence signal),[10],7.4
